Measured values: US20040053999A1, “Novel compounds and methods for synthesis and therapy” (priority 1997, published 2004)

Legend:
[1] = mouse, in vivo, cited from earlier work
[2] = in vivo; cited from earlier work
[3] = system: influenza; settings: mice, Ryan et al. 1994, cited from earlier work
[4] = target: T1, neuraminidase (UniProt P03468); format: biochemical; settings: enzyme inhibition in vitro
T1 construct: IC50; other: compound incubated in enzyme assay buffer before the test
T1 sequence (P03468 whole entry): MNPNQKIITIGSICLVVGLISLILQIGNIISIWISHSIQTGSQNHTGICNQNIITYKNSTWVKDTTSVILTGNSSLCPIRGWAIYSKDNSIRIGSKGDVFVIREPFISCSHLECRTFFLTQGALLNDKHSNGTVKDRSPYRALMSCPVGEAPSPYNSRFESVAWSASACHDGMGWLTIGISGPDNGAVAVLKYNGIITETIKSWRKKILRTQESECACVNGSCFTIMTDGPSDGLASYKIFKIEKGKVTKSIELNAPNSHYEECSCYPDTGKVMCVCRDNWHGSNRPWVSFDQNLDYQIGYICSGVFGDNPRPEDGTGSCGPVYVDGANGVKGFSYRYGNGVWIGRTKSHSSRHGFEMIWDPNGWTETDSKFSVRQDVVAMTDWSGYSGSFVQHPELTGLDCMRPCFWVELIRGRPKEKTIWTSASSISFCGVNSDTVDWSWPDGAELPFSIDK

| SMILES | Bioavailability ([1]; ip) | Oral bioavailability ([1]; po) | Clearance from the plasma [1] | Toxicity [2] | In vivo activity ([3]; intraperitoneal administration) | Efficacy ([3]; oral dosing) | IC50 [4] [nM] |
| --- | --- | --- | --- | --- | --- | --- | --- |
| CC(=O)N[C@H]1[C@H]([C@H](O)[C@H](O)CO)OC(C(=O)O)=C[C@@H]1N=C(N)N [GG167, 4-guanidino-2,4-dideoxy-2,3-dehydro-N-acetylneuraminic acid] | good | poor | rapid | similarly nontoxic | relatively poor | poor |  |
| CC(=O)N[C@H]1[C@H](O)C=C(C(=O)O)C[C@@H]1N=C(N)N [compound 94] |  |  |  |  |  |  | < 1000 |
| COCO[C@@H]1C=C(C(=O)O)C[C@H](N)[C@H]1NC(C)=O [compound 114] |  |  |  |  |  |  | 1000 to 10000 |
